Among the data in ChEMBL document CHEMBL5465560, “Selectivity Literature for EUbOPEN Chemogenomic Library” (2024) are % of control and % of inhibition values, retold here.

The target in test [1] is T1, Atypical kinase COQ8B, mitochondrial (Homo sapiens) (UniProt Q96D53).
T1 sequence (whole entry): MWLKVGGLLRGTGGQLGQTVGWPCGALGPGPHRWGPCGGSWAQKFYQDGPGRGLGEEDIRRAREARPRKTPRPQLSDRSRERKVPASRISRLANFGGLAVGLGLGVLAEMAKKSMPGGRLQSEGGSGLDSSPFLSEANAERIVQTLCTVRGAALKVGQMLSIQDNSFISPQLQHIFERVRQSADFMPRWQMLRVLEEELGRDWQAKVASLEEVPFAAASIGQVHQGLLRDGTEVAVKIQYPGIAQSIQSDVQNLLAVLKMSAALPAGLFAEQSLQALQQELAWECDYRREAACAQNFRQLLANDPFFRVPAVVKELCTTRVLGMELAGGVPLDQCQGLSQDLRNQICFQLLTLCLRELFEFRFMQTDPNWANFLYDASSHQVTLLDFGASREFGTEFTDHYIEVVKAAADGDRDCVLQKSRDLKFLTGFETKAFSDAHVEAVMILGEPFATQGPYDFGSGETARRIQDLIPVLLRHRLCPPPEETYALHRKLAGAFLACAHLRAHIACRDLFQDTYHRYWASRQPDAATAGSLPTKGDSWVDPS
The conditions noted are these: at 10 µM.

In test [2] the target is Macrophage colony-stimulating factor 1 receptor (Homo sapiens) (UniProt P07333). Particulars: at 10 µM.
Test [3] addresses Casein kinase I isoform gamma-3 (Homo sapiens) (UniProt Q9Y6M4). Kind of test: Selectivity interaction (Ambit KINOMEscan and KiNATiv profiling in Jurkat cells) EUB0000090b CSNK1G3. In kind it is cell-based. Particulars: at 1 µM.
The target in test [4] is T2, Activin receptor type-1B (Homo sapiens) (UniProt P36896).
T2 sequence (whole entry): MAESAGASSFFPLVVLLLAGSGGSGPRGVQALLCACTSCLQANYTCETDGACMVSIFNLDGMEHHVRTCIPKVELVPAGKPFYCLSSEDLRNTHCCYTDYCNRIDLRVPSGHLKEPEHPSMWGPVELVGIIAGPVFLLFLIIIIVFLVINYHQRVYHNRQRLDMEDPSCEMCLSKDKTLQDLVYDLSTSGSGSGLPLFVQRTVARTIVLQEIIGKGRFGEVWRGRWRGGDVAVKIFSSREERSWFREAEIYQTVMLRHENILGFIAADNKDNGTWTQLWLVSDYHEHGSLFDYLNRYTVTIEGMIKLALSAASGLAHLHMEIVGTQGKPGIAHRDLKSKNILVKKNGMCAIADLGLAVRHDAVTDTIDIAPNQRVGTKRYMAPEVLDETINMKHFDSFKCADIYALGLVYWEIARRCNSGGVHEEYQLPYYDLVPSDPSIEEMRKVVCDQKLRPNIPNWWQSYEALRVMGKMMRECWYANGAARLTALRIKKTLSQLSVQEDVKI
The conditions noted are these: at 10 µM.

For test [5], the target named is T3, Tyrosine-protein kinase Tec (Homo sapiens) (UniProt P42680).
T3 sequence (whole entry): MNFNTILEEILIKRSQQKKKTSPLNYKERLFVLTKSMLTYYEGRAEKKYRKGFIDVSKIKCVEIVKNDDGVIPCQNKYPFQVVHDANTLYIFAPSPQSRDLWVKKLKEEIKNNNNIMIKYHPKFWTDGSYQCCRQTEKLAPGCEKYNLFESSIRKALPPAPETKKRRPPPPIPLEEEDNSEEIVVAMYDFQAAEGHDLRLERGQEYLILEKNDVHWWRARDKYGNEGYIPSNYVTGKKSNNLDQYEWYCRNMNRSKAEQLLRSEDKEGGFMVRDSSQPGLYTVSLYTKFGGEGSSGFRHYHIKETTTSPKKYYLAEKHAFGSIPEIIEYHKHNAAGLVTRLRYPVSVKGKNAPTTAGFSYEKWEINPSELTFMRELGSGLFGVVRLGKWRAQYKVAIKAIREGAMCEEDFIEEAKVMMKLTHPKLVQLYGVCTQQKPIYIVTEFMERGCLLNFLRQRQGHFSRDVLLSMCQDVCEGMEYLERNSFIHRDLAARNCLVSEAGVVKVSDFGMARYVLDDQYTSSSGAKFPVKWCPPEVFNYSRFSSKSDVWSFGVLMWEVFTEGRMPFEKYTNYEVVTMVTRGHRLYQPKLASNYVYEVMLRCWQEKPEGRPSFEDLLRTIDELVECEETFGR
Kind of test: Selectivity interaction (KinomeScan (DiscoverX)) EUB0000655a TEC. The conditions noted are these: at 10 µM.

Test [6] has as its target T4, cAMP-dependent protein kinase catalytic subunit PRKX (Homo sapiens) (UniProt P51817).
T4 sequence (whole entry): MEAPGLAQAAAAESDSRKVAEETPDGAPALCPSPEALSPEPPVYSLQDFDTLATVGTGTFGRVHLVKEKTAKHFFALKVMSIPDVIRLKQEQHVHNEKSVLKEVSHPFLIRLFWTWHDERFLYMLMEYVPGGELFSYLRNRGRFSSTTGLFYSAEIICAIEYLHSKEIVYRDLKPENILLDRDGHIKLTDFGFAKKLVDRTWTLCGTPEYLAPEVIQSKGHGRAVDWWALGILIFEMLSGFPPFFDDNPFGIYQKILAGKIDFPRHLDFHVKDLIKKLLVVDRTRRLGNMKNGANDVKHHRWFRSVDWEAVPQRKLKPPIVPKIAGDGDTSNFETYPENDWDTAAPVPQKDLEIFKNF
As to the kind of experiment: Selectivity interaction (KinomeScan (DiscoverX)) EUB0000045b PRKX.

A short description of test [7]: Selectivity interaction (KinomeScan (DiscoverX)) EUB0000607a PKNB. The conditions noted are these: at 10 µM.
For test [8], the target named is Tyrosine-protein kinase Fyn (Homo sapiens) (UniProt P06241). Kind of test: Selectivity interaction (ActivX KiNativ screen (kinase selectivity in THP-1 cell lysates)) EUB0000639a FYN. In kind it is subcellular. The conditions noted are these: lysate, at 0.01 µM.
Test [9] concerns Phosphatidylinositol 4,5-bisphosphate 3-kinase catalytic subunit alpha isoform (Homo sapiens), P42336 [Q546K]. Particulars: at 10 µM.
Sequence of Phosphatidylinositol 4,5-bisphosphate 3-kinase catalytic subunit alpha isoform (Homo sapiens), P42336 [Q546K] (P42336 whole entry Q546K, canonical isoform): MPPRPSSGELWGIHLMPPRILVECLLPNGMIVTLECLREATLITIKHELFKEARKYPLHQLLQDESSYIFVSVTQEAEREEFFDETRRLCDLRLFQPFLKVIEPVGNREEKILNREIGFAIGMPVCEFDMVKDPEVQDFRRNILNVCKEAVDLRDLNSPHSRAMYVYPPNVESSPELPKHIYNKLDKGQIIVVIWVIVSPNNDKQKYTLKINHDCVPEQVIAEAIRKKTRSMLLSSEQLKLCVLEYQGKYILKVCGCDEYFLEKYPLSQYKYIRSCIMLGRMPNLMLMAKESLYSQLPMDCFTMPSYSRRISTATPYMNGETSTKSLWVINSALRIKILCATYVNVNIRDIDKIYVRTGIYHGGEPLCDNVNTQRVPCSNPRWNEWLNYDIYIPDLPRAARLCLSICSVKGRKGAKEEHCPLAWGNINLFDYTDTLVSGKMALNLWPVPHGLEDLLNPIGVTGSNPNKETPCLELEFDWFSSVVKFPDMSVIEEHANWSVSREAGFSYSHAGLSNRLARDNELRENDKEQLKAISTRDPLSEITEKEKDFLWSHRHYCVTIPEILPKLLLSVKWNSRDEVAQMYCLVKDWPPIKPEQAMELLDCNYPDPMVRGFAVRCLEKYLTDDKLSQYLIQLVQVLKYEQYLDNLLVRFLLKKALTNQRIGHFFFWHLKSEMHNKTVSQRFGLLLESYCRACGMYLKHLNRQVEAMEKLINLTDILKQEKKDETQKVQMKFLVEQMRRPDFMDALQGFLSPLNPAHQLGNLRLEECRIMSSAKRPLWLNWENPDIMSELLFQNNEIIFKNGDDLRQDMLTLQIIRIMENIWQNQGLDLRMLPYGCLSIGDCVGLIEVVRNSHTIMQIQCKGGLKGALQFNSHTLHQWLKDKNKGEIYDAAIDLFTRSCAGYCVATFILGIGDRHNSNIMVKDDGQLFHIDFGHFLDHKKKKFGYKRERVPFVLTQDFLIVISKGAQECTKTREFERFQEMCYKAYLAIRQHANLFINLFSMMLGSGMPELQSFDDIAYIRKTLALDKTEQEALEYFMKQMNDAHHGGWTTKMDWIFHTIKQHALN

Sequence of Macrophage colony-stimulating factor 1 receptor (Homo sapiens) (P07333 whole entry, canonical isoform): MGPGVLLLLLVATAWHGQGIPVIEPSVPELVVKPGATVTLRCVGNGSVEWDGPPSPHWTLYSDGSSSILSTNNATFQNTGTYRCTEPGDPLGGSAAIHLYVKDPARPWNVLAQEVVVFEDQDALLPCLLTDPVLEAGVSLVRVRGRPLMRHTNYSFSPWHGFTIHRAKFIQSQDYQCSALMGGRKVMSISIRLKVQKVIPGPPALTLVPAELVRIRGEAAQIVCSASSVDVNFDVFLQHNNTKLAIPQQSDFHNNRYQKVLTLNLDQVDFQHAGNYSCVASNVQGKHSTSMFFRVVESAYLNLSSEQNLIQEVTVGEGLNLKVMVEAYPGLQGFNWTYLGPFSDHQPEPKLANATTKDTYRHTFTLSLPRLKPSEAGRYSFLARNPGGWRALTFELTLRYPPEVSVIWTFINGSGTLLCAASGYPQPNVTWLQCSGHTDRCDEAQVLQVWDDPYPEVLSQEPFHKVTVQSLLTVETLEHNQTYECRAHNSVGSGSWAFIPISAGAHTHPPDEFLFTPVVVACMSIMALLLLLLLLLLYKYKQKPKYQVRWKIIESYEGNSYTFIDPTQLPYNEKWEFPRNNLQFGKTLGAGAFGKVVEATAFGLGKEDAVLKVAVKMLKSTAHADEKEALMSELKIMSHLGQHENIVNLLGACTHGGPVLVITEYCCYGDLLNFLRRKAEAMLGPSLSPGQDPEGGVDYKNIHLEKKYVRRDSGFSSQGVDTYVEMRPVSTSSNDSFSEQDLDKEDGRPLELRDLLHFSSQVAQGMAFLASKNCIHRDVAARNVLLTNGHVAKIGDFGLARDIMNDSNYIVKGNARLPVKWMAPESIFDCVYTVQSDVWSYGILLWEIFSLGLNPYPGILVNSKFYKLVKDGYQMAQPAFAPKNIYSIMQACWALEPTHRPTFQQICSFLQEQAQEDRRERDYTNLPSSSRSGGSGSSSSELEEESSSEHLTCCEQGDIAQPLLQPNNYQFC
Sequence of Tyrosine-protein kinase Fyn (Homo sapiens) (P06241 2-537 limits assumed): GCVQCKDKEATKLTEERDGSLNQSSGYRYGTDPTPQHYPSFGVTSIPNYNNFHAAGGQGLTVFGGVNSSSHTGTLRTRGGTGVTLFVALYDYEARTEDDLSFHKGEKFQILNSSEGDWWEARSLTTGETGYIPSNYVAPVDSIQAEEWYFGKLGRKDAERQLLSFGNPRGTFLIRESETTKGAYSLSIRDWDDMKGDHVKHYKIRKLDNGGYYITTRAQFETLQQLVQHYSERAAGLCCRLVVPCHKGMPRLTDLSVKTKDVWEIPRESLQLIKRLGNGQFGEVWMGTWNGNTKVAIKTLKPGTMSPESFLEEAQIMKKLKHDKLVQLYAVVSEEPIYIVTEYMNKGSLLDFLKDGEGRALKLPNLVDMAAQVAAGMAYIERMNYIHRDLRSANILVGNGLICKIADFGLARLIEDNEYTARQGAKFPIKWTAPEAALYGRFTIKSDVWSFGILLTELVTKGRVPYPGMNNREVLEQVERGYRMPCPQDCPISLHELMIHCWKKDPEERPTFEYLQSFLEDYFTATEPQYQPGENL
Sequence of Casein kinase I isoform gamma-3 (Homo sapiens) (Q9Y6M4 whole entry, looked up, canonical isoform): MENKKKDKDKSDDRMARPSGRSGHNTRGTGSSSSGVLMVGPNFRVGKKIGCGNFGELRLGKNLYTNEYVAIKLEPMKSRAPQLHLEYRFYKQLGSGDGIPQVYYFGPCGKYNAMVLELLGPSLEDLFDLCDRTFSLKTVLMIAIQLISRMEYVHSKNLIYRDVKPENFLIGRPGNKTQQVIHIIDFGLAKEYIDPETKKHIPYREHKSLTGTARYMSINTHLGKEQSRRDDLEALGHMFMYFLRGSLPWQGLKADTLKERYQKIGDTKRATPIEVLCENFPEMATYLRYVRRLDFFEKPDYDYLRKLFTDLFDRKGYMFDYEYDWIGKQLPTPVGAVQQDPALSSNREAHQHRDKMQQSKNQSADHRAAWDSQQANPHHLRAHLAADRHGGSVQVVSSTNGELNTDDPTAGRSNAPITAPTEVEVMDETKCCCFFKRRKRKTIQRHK

Turning to `Cc1cc([C@@H](C)Nc2ccccc2C(=O)O)c2nc(N3CCOCC3)cc(=O)n2c1` [AZD-6482], the % of control amounted to 79% in test [1] and 94% in test [2].

On to `CN(C)C/C=C/C(=O)Nc1ccc(C(=O)N2CCCC(Nc3ncc(Cl)c(-c4c[nH]c5ccccc45)n3)C2)cc1` (stereo not given), for which the % of control in test [3] stood at 67%.

`CCN(CC)CCCCNc1ncc2cc(-c3cc(OC)cc(OC)c3)c(NC(=O)NC(C)(C)C)nc2n1`: in [4], the % of control was 100%.

On to `CN(C)CCOc1ccc(-c2nc(-c3ccncc3)c(-c3ccc4c(c3)CC/C4=N\O)[nH]2)cc1`, for which the % of control in test [5] amounted to 91%.

Consider `C=CC(=O)Nc1cc(-n2c(=O)ccc3cnc4ccc(-c5ccc(NS(C)(=O)=O)cc5)cc4c32)ccc1C`, for which the % of control in [6] (at 1 µM) turned out to be 77%; in test [6] (at 10 µM) it was 74%.

As for `CNC(=O)Nc1ccc(-c2nc(N3CC4CCC(C3)O4)c3cnn(C4CCC5(CC4)OCCO5)c3n2)cc1`, the % of control in test [7] is 94%.

`CC[C@@H]1[C@H](F)C(=O)N[C@@H]1COc1nccc2cc(C(N)=O)c(OC)cc12` [ZIMLOVISERTIB]: the % of inhibition in test [8] was -8.5%.

The compound `COCC(=O)NC/C=C/c1ccc2ncnc(Nc3ccc(Oc4ccc(C)nc4)c(C)c3)c2c1` [CP-724714] showed a % of control in [9] of 38%.
